Assay results from ChEMBL document CHEMBL2424647, “Molecular docking studies of the interaction between propargylic enol ethers and human DNA topoisomerase IIα” (2013).

Columns and labels:
Assay type in all cases: functional
WiDr = test: Growth inhibition of human WiDr after 48 hrs
HeLa = test: Growth inhibition of human HeLa after 48 hrs
SW1573 = test: Growth inhibition of human SW1573 after 48 hrs; details: SW1573, 48 h
HBL-100 = test: Growth inhibition of human HBL100 after 48 hrs; details: HBL-100, 48 h

## CCCCC[C@@H](C#CC(=O)OC)O/C=C/C(=O)OC
WiDr
  GI50: 24 µM
HeLa
  GI50: 2.9 µM
SW1573
  GI50: 8.4 µM
HBL-100
  GI50: 2.3 µM

## CCCCC[C@H](C#CC(=O)OC)O/C=C/C(=O)OC
WiDr
  GI50: 26 µM
HeLa
  GI50: 2.6 µM
SW1573
  GI50: 5.5 µM
HBL-100
  GI50: 3.3 µM

## CCCCCC(C#CC(=O)OC)O/C=C/C(=O)OC (racemic)
WiDr
  GI50: 13 µM
HeLa
  GI50: 17 µM
SW1573
  GI50: 1.3 µM
HBL-100
  GI50: 2.7 µM

## CCCCC(C#CC(=O)OC)O/C=C/C(=O)OC (racemic)
WiDr
  GI50: 3.6 µM
HeLa
  GI50: 3.4 µM
SW1573
  GI50: 0.42 µM
HBL-100
  GI50: 0.47 µM
